The record followed here is patent US10722491B2, “Phenol compound and combination of same with a benzodiazepine fused to 1,4-dihydropyridine for treating diseases of the central nervous and vascular systems” (UNIVERSIDAD DE LA HABANA, priority 2016, dated 2020).

Experiment [1] can be described thus: KM-34 capacity to reduce DPPH radicals. It is filed as biochemical. The protocol:
FIG. 1. Percentage reduction of DPPH (100 μM) by KM-34 (5-400 μM) was determined by changing in the absorbance at 550 nm from a target containing only DPPH and vehicle (zero concentration of KM −34 or AA), after 30 minutes of reaction. Values are expressed as the mean ± SD (n=3). *P<0.05 with respect to the vehicle.
One of the most commonly used methods to estimate antioxidant activity is to evaluate the ability of different compounds to reduce DPPH radicals, which can be determined spectrophotometrically (Brand-Williams et al., 1995). […] Electron delocalization causes the intense violet coloration of the DPPH radical form when it is prepared in ethanol solution (Molyneux et al., 2004).
The IC 50 value obtained for KM was approximately 2.4 times lower than that obtained for ascorbic acid (AA) used as the reference compound.

Experiment [2] has as its system PC12 cells. In words: Cytoprotection against FeSO4/AA damage in PC12 cells (MTT). The format is cell-based. On the procedure:
FIG. 8. Cytoprotective effect of KM-34 (0.001-10 μM) against damage induced by FeSO4 (5 mmol/L) and ascorbic acid (AA, 2 mmol/L) in cultures of PC12 cells. Viability 1% live cells) was determined by the MTT assay. Cells were seeded at a density of 5×10^5 cells/mL in a 96-well plate. The KM-34 was added simultaneously to the addition of the mixture of FeSO 4 and AA. The culture was then allowed to incubate at 37° C, […] and 5% CO 2 for 4 hours. After this time the supernatant was removed and the cells were incubated with 20 μg of MTT for a further 2 hours and the absorbance at 450 nm was measured with reference to 630 nm. The results are expressed as percentage of live cells relative to the control (undamaged cells, 100% live cells. *Represents significant differences (p<0.05) with respect to FeSO4/AA control.
The FeSO4/AA system is a strong catalyst for oxidative reactions in cells such as PC12 leading to their death (Hiroi et al., 2005; Núñez et al., 2011). […] At concentrations greater than 1 μM the % cell survival was greater than 90% (FIG. 8).

Experiment [3] can be described thus: O2.- radical scavenging in the pyrogallol autoxidation test. It is filed as biochemical. The protocol:
FIG. 2. Activity of KM-34 (5-100 μM) as radical scavenger O2.− expressed as the percentage inhibition of autoxidation of pyrogallol. The same was obtained by varying the absorbance at 420 nm for 1 minute with respect to a blank uninhibited reaction: without KM-34; the slope was calculated for each concentration of the sample and for the target with a R2>0.98. The reaction takes place in […] Tris-HCl pH 8.2 buffer and was initiated by the addition of 0.134 mM Pirogalol*P<0.05 to the carrier (uninhibited reaction).
A non-enzymatic system generating these radicals was used to evaluate the O2.^− sequestration activity of KM-34, which catalyzes the autoxidation of pyrogallol, forming a colored compound that absorbs at 420 nm (Marklund, 1985).

Experiment [4] deals with PC12 cells. Description: Cytoprotection against H2O2 damage in PC12 cells (MTT). The format is cell-based. On the procedure: FIG. 7. Cytoprotective effect of KM-34 (1-100 μM) against damage induced by H2O2 (150 μM) in cultures of PC12 cells. Viability (% live cells) was determined by the MTT assay. Cells were seeded at a density of 5×10^5 cells/mL in a 96-well plate. The KM-34 was added simultaneously to the addition of the H2O2 mixture. The culture was then allowed to incubate at 37° C, […] and 5% CO 2 for 4 hours. After this time the supernatant was removed and the cells were incubated with 20 μg of MTT for an additional 2 hours and the absorbance at 450 nm was measured with reference to 630 nm. The results are expressed as percentage of live cells relative to the control (undamaged cells, 100% live cells). The * represents significant differences (p<0.05) with respect to the H2O2 control.
FIG. 15. The survival rate for […] administered 150 μM H2O2 is shown. The control group was not administered 150 μM H2O2. The remaining four groups were administered 150 μM H2O2. The “H2O2 150 μM” group was not administered any compounds of the invention. The “JM 1 μM” group was administered 1 μM JM-20. The “KM 0.1 μM” group was administered 0.1 μM KM-34. The “JM 1 μM+KM 0.1 μM” group was administered 1 μM JM-20 and 0.1 μM KM-34.
H2O2 is formed in vivo spontaneously or enzymatically. At low concentrations this may be poorly reactive, however at high concentrations it may interact with and generate inactivation of the energy generating systems of the cells. In addition H2O2 is able to oxidize —SH groups of proteins and cause DNA strand rupture. Their most damaging effect is the formation of catalyzed transition metals by the Fenton-Habber-Weiss reaction (Martinez, 2005). This is based on the use of H2O2 in this test, with the aim of observing if the KM-34 is capable of reversing the damages caused by the chemical agent.

Experiment [5] concerns PC12 cells. Description: Cytoprotection against L-glutamate damage in PC12 cells (MTT). It is filed as cell-based. To be noted: 50 mM L-glutamate. The protocol: FIG. 6. Cytoprotective effect of KM-34 10001-10 HM) against damage induced by L-glutamate (50 mmol/L) in cultures of PC12 cells. Viability (% live cells) was determined by the MTT assay. Cells were seeded at a density of 5×10^5 cells/mL in a 96-well plate. KM-34 was added simultaneously to the addition of L-glutamate. The culture was then allowed to incubate at 37° C, […] and 5% CO 2 for 4 hours. After this time the supernatant was removed and the cells were incubated with 20 μg of MTT for an additional 2 hours and the absorbance at 450 nm was measured with reference to 630 nm. The results are expressed as percentage of live cells relative to the control (cells without damage, 100% of live cells. * Represents significant differences (p<0.05) with respect to the L-glutamate control.
FIG. 14. The survival rate for […] administered 50 mM Glutamate is shown. The control group was not administered 50 mM Glutamate. The remaining four groups were administered 50 mM Glutamate. The “Glu 50 mM” group was not administered any compounds of the invention. The “JM 0.01 μM” group was administered 0.01 μM JM-20. The “KM 0.01 μM” group was administered 0.01 μM KM-34. The “JM 0.01 μM+KM 0.01 μM” group was administered 0.01 μM JM-20 and 0.01 μM KM-34.
At values above 1 μM KM-34, the cytoprotection response is greater than 80%.

What is called IC50 is the concentration at which inhibition is half-maximal. As to `CC1(C)OC(=O)C(=Cc2ccc(O)c(O)c2)C(=O)O1` [KM-34, 5-[(3,4-dihydroxyphenyl)methylidene]-2,2-dimethyl-1,3-dioxane-4,6-dione], the IC50 in experiment [1] (DPPH 100 μM, 30 minutes of reaction, read-out: IC50, reduction of DPPH radicals) amounted to 16.3 µM; in experiment [3] (Tris-HCl pH 8.2, read-out: IC50, inhibition of autoxidation of pyrogallol (O2.- scavenging)) it was 11 µM. The “IC50 of KM relative to ascorbic acid (times lower)” value in experiment [1] (DPPH, AA as reference compound) is reported as “approximately 2.4 times”. In experiment [1] (after 30 minutes of reaction), the “Concentration giving significant (p<0.05) inhibition of the DPPH radical vs vehicle” value is “higher than 5 μM”. Also, the DPPH reduction response result in experiment [1] (at concentrations above 50 μM) is “reached its maximum response”. For the same compound, the “Concentration showing cytoprotective effects against FeSO4/AA” value with PC12 cells [2] (FeSO4 5 mmol/L and AA 2 mmol/L, 4 hours) was “higher than 0.001 μM”. In the experiment on PC12 cells [2] (FeSO4/AA, concentrations between 0.01-10 μM), the “Cells surviving oxidizing conditions” value was 90 out of 100 cells. The “% cell survival” value with PC12 cells [2] (FeSO4/AA, concentrations greater than 1 μM) is listed as “greater than 90%”; with PC12 cells [4] (150 μM H2O2, concentrations higher than 50 μM), about 90%. Further, in experiment [3], the “Concentration significantly (p<0.05) inhibiting formation of oxidized pyrogallol vs vehicle” value is given as “greater than 5 μM”. Further, the “Inhibition of oxidation of pyrogallol” value in experiment [3] (from 50 μM) is “totally inhibited”. Besides, in the experiment with PC12 cells [4] (150 μM H2O2, 4 hours), the “Concentration achieving significant cellular survival against H2O2” value was “higher than 5 μM”. Also, the Cellular survival response result in the experiment on PC12 cells [4] (150 μM H2O2, from 25 μM KM-34) is listed as “higher than 50%”. In the experiment with PC12 cells [5] (4 hours), the “Concentration significantly (P<0.01) inhibiting cell damage by L-glutamate” value is “greater than 0.01 μM”. Besides, the Cytoprotection response entry in the experiment with PC12 cells [5] (above 1 μM KM-34) was “greater than 80%”.
